In the NIST ThermoML archive (doi:10.1016/j.jct.2014.02.022):

Tests used:
[1] = mn = molality of the nth substance listed, in mol/kg; settings: 101 kPa, Liquid; for viscosity: Capillary tube (Ostwald / Ubbelohde) method; for mass density: Vibrating tube method
[2] = 101 kPa, Liquid; for viscosity: Capillary tube (Ostwald / Ubbelohde) method; for mass density: Vibrating tube method

CO [methanol] + Cc1ncc(CO)c(CO)c1O.Cl
[1], m2 = 0
Settings | mass density [kg/m3] | viscosity [mPa·s]
298.15 K | 786.67 | 0.543
308.15 K | 777.18 | 0.4708
318.15 K | 767.75 | 0.4194

CO [methanol]
[2]
Settings | mass density [kg/m3] | viscosity [mPa·s]
298.15 K | 786.67 | 0.543
308.15 K | 777.18 | 0.4708
318.15 K | 767.75 | 0.4194

Cc1ncc(CO)c(CO)c1O.Cl [5-hydroxy-6-methyl-3,4-pyridinedimethanol hydrochloride] + CO
[1]
Settings | mass density, 298.15 K [kg/m3] | mass density, 308.15 K [kg/m3] | mass density, 318.15 K [kg/m3] | viscosity, 298.15 K [mPa·s] | viscosity, 308.15 K [mPa·s] | viscosity, 318.15 K [mPa·s]
m1 = 0.0127 | 789.07 | 778.65 | 769.25 | 0.5562 | 0.4853 | 0.4275
m1 = 0.0254 | 789.94 | 779.85 | 770.18 | 0.5621 | 0.4955 | 0.4468
m1 = 0.0382 | 790.86 | 780.83 | 771.13 | 0.5712 | 0.5034 | 0.464
